Holding throughout (format): cell-based, human
One assay has as its system Daoy cells. Description: CXCL8-induced migration in Boyden chamber. To be noted: 1 µM, 200 ng/mL CXCL8. The method, then: (§1) Figure 4 C29 reduces proliferation, migration, and invasion of naïve MB cells. (A) Proliferation of Daoy, ONS-76, HD-MB03, and D341Med wild-type cells after treatment with 1 μM C29 or the control (DMSO), n = 3. (B) Clonogenic assay on Daoy (n = 4), ONS-76 (n = 3) and HD -MB03 (n = 5) cells after treatment with control (DMSO) or C29 (1 μM or 2.5 μM). Scale = 500 μm. (C) Cell migration through the Boyden chamber of Daoy and ONS-76 cells specifically attracted by 200 ng/mL CXCL8. Results are expressed as percentage of control (DMSO) (n = 3). Scale = 1000 μm. (D) Spheroid invasion using 3D culture cell assays on Daoy (n = 4) and ONS-76 cells (n = 3) treated with control (DMSO) or C29 at a concentration of 1 μM on day 0, 1, and 2. Results are expressed as percentage of day 0, n = 4. Scale = 500 μm. Statistics were performed using Student t-test for 2 comparisons only or ANOVA test for multiple comparisons. * p < 0.05, ** p < 0.01, *** p < 0.001. […]
(§2) each month by using PlasmoTest Kit (#10L07‐MM, InvivoGen, Toulouse, France). Daoy and ONS‐76 belong to the Shh genetic subgroup, D341‐Med and HD‐MB03 to group 3. […]
(§3) (1, 2∙5, 5μM) for 48 hours. […]
(§4) Data were presented with the percentage of cell death after subtracting the percentage of untreated and unlabelled dead cells.
(§5) Migration in Boyden chambers
(§6) The cells were deprived of serum overnight. […] Cells were counted using ImageJ software (NIH). […]

Another assay relates to ONS-76 cells. Put plainly: CXCL8-induced migration in Boyden chamber. The conditions noted are these: ONS-76, 1 µM, 200 ng/mL CXCL8. As for the experimental part: as §1, §2, §3, §4, §5, §6
Assay [1] deals with HD-MB03 spheroids expressing DsRed on mouse cerebellar slices. Description: Ex vivo cerebellar organotypic model. The conditions noted are these: 5 µM C29 daily for five days, after fourteen days. An excerpt: (§7) To establish ex vivo cultures of cerebellar tissues, mouse cerebellums were surgically harvested and sectioned into 250 μm thick slices using a vibrating blade microtome (RRID:SCR_016495). To comply with the 3-R rule, we used supernumerary mice (aged 12 weeks) that were destined to be sacrificed. A spheroid formed from DsRed-expressing MB cells was then grafted onto each cerebellum slice. These organotypic co-culture models were placed on inserts and maintained as previously described. After daily exposure to C29 or DMSO for 5 consecutive days, tumour growth and invasion within the cerebellum slices were analysed over time using the JuLI™ Stage imaging system and the PHERAstar® FS multiplate reader (λex 580 nm/λem 620 nm–fluorescence signal acquisition with a 15 × 15 matrix scanning mode). […]
(§8) Figure 7 C29 is effective in ex vivo cerebellar organotypic model. […] (B) Spheroid growth was monitored by measuring DsRed fluorescence (PheraStar) over 14 days (C) Statistics were performed using Student t-test. * p < 0.05, n = 5. […] Daily (14 days) images, 30 in total, of spheroid growth in each well (JULISdays) were taken (D) Spheroid growth was monitored by measuring DsRed fluorescence (PheraStar) for 14 days (E) Scale bar = 250 µM. […]

For assay [2], the system named is ONS-76 spheroids expressing DsRed on mouse cerebellar slices. Description: Ex vivo cerebellar organotypic model. The conditions noted are these: 5 µM C29 daily for five days, after fourteen days.
From the text: as §7, §8

Molecules are shown by their SMILES.

Take `O=C(Nc1cccc(Cl)c1)Nc1nc2ccc([N+](=O)[O-])cc2s1` [C29, 1-(3-chlorophenyl)-3-(6-nitrobenzo[d]thiazol-2-yl) urea]: the CXCL8-induced migration entry in the assay with Daoy cells and with ONS-76 cells was “blocked CXCL8-induced migration” in each case. Moreover, the figures for the “Reduction of tumour expansion” value in assay [1] and in assay [2] were 34.4 ± 8.8% and 28.9 ± 4.5%, respectively.

The record behind these values is article PMC9738107, “Targeting of the ELR+CXCL/CXCR1/2 Pathway Is a Relevant Strategy for the Treatment of Paediatric Medulloblastomas” (Cells, 2022).
